Like-named read-outs stand apart in the source and are kept apart here.
Tests used:
[1] = test system: MV4:11 human cancer cell lines; experiment: Anti-proliferative activity, CellTiter-Glo viability assay, 7 day protocol; assay type: cell-based; conditions: Homo sapiens, MV4-11, 168 h, MV4:11 cells, 7 day incubation, read-out: GI50 on cellular proliferation of MV4:11 human cancer cell lines
Protocol: Viability assays are performed by dispensing […] into each well of an opaque 384-well plate and adding compounds at the indicated concentrations in a final volume of 32 μL and a final concentration of DMSO of 0.1% for all samples. After a set incubation period, 7 day protocol, the viability of cells in each well is assessed using the CellTiter-Glo assay (Promega), read on a GloMax 96 Microplane Luminometer (Promega). Serial dilutions of each cell type are included in all assays to generate standard curves and determine assay measurements are taken within the dynamic range of the instrument. GI50 values are calculated based on three biological replicates, each with three technical replicates. Data are expressed as mean plus/minus S.E.M.

WDR5 = WDR5 (Homo sapiens (Human), UniProt P61964); experiment: TR-FRET binding assay (displacement of 10mer-Thr-FAM probe from WDR5)
[2] = read-out: Ki for Inhibition of WDR5 by TR-FRET assay, TR-FRET, 10mer-Thr-FAM probe, WDR5-His tag 2 nM, pH 7.0
[3] = read-out: Ki for Inhibition of WDR5 by TR-FRET assay

| Ki (WDR5) | Compound | GI50 [1] | Ki (WDR5; [2]) | Ki (WDR5; [3]) |
| --- | --- | --- | --- | --- |
|  | Cc1cc([C@@H](NC(=O)c2cc(Cn3ccn(C4CC4)c3=N)cc(-c3ccc(F)cc3Cl)c2)C2CC2)ccc1F [Example 141, (S)-2′-Chloro-N-(cyclopropyl(4-fluoro-3-methylphenyl)methyl)-5-((3-cyclopropyl-2-imino-2,3-dihydro-1H-imidazol-1-yl)methyl)-4′-fluoro-[1,1′-biphenyl]-3-carboxamide] | < 100 nM | < 0.1 nM |  |
|  | Cc1cc([C@@H](NC(=O)c2cc(CN3CCN(C)C3=N)cc(-c3cn(C)nc3C(F)(F)F)c2)C2CC2)ccc1F [Example 203, (S)—N-(cyclopropyl(4-fluoro-3-methylphenyl)methyl)-3-((2-imino-3-methylimidazolidin-1-yl)methyl)-5-(1-methyl-3-(trifluoromethyl)-1H-pyrazol-4-yl)benzamide] | < 100 nM |  | < 0.1 nM |
|  | Cn1cc(-c2cc(Cn3ccn(C4CC4)c3=N)cc(C(=O)N[C@H](c3ccc(Cl)c(Cl)c3)C3CC3)c2)c(C(F)(F)F)n1 [Example 159, (S)—N-(cyclopropyl(3,4-dichlorophenyl)methyl)-3-((3-cyclopropyl-2-imino-2,3-dihydro-1H-imidazol-1-yl)methyl)-5-(1-methyl-3-(trifluoromethyl)-1H-pyrazol-4-yl)benzamide] | 190 nM | < 0.1 nM |  |
|  | COc1cc(CNC(=O)c2cc(Cn3ccn(C)c3=N)cc(-c3c(C)ccc4[nH]ncc34)c2)cc(OC)c1 [Example 35, N-(3,5-Dimethoxybenzyl)-3-((2-imino-3-methyl-2,3-dihydro-1H-imidazol-1-yl)methyl)-5-(5-methyl-1H-indazol-4-yl)benzamide] | 9000 nM | 1.3 nM |  |
|  | Cc1cc([C@@H](NC(=O)c2cc(Cn3ccn(C4CC4)c3=N)cc(-c3ccc(F)cc3C(F)F)c2)C2CC2)ccc1F [Example 158, (S)—N-(Cyclopropyl(4-fluoro-3-methylphenyl)methyl)-5-((3-cyclopropyl-2-imino-2,3-dihydro-1H-imidazol-1-yl)methyl)-2′-(difluoromethyl)-4′-fluoro-[1,1′-biphenyl]-3-carboxamide] | 170 nM | < 0.1 nM |  |
|  | Cc1ccnc(C(NC(=O)c2cc(Cn3ccn(C)c3=N)cc(-c3ccc(F)nc3C)c2)C2CC2)c1 (stereo not drawn) [Example 3, N-(Cyclopropyl(4-methylpyridin-2-yl)methyl)-3-(6-fluoro-2-methylpyridin-3-yl)-5-((2-imino-3-methyl-2,3-dihydro-1H-imidazol-1-yl)methyl)benzamide] | 550 nM | < 0.1 nM |  |
|  | CCOc1c(C(=O)N[C@@H](C)c2ccc(F)c(C)c2)cc(CN2CCOC2=N)cc1-c1cn(C)nc1C(F)(F)F [Example 302, (S)-2-Ethoxy-N-(1-(4-fluoro-3-methylphenyl)ethyl)-5-((2-iminooxazolidin-3-yl)methyl)-3-(1-methyl-3-(trifluoromethyl)-1H-pyrazol-4-yl)benzamide] | < 100 nM | < 0.1 nM |  |
|  | Cc1ccnc(C(NC(=O)c2cc(Cn3ccn(C)c3=N)cc(-c3c(C)ccc4[nH]ncc34)c2)C2CC2)c1 (stereo not drawn) [Example 47, N-(cyclopropyl(4-methylpyridin-2-yl)methyl)-3-((2-imino-3-methyl-2,3-dihydro-1H-imidazol-1-yl)methyl)-5-(5-methyl-1H-indazol-4-yl)benzamide] | 6700 nM | 0.88 nM |  |
|  | N=C1OCCN1Cc1cc(C(=O)N[C@H](c2ccc(Cl)c(Cl)c2)C2CC2)cc(-c2ncc(F)cc2C(F)(F)F)c1 [Example 284, (S)—N-(Cyclopropyl(3,4-dichlorophenyl)methyl)-3-(5-fluoro-3-(trifluoromethyl)pyridin-2-yl)-5-((2-iminooxazolidin-3-yl)methyl)benzamide] | 270 nM | 0.11 nM |  |
|  | Cc1cc([C@@H](NC(=O)c2cc(Cn3ccn(C)c3=N)cc(-c3cccnc3C(F)(F)F)n2)C2CC2)ccc1F [Example 119, (S)—N-(Cyclopropyl(4-fluoro-3-methylphenyl)methyl)-4-((2-imino-3-methyl-2,3-dihydro-1H-imidazol-1-yl)methyl)-2′-(trifluoromethyl)-[2,3′-bipyridine]-6-carboxamide] | 7600 nM | 0.16 nM |  |
|  | Cc1cc([C@@H](NC(=O)c2cc(CN3CCOC3=N)cc(-c3ccc(F)cc3C(F)(F)F)c2F)C2CC2)ccc1F [Example 283, (S)—N-(Cyclopropyl(4-fluoro-3-methylphenyl)methyl)-2,4′-difluoro-5-((2-iminooxazolidin-3-yl)methyl)-2′-(trifluoromethyl)-[1,1′-biphenyl]-3-carboxamide] | 120 nM | 0.02 nM |  |
|  | CC(C)n1cc(-c2cc(CN3CCOC3=N)cc(C(=O)N[C@H](c3ccc(F)c(F)c3)C3CC3)c2)c(C(F)(F)F)n1 [Example 286, (S)—N-(Cyclopropyl(3,4difluorophenyl)methyl)-3-((2-iminooxazolidin-3-yl)methyl)-5-(1-isopropyl-3-(trifluoromethyl)-1H-pyrazol-4-yl)benzamide] | < 100 nM | < 0.1 nM |  |
|  | CCn1cc(-c2cc(Cn3ccn(C4CC4)c3=N)cc(C(=O)N[C@H](c3ccc(F)c(C)c3)C3CC3)c2)c(C(F)(F)F)n1 [Example 160, (S)—N-(Cyclopropyl(4-fluoro-3-methylphenyl)methyl)-3-((3-cyclopropyl-2-imino-2,3-dihydro-1H-imidazol-1-yl)methyl)-5-(1-ethyl-3-(trifluoromethyl)-1H-pyrazol-4-yl)benzamide] | < 100 nM | < 0.1 nM |  |
|  | Cc1cc([C@@H](NC(=O)c2cc(Cn3ccn(C4CC4)c3=N)cc(-c3cccnc3C(F)(F)F)c2)C2CC2)ccc1F [Example 115, (S)—N-(Cyclopropyl(4-fluoro-3-methylphenyl)methyl)-3-((3-cyclopropyl-2-imino-2,3-dihydro-1H-imidazol-1-yl)methyl)-5-(2-(trifluoromethyl)pyridin-3-yl)benzamide] | < 100 nM | < 0.1 nM |  |
|  | Cn1cc(-c2cc(Cn3ccoc3=N)cc(C(=O)N[C@H](c3ccc(Cl)c(Cl)c3)C3CC3)c2)c(C(F)(F)F)n1 [Example 268, (S)—N-(Cyclopropyl(3,4-dichlorophenyl)methyl)-3-((2-iminooxazol-3(2H)-yl)methyl)-5-(1-methyl-3-(trifluoromethyl)-1 t-pyrazol-4-yl)benzamide] | < 100 nM |  | < 0.1 nM |
|  | Cc1cc(CNC(=O)c2cc(Cn3ccn(C)c3=N)cc(-c3ccc(F)cc3C(F)(F)F)c2F)ccc1Cl [Example 111, N-(4-Chloro-3-methylbenzyl)-2,4′-difluoro-5-((2-imino-3-methyl-2,3-dihydro-1H-imidazol-1-yl)methyl)-2′-(trifluoromethyl)-[1,1′-biphenyl]-3-carboxamide] | 300 nM | < 0.1 nM |  |
| < 0.1 nM | Cc1cc([C@@H](NC(=O)c2cc(Cn3ccn(C)c3=N)cc(-c3ccc(F)cc3C(F)(F)F)c2)C2CC2)ccc1F [Example 188, (S)—N-(Cyclopropyl(4-fluoro-3-methylphenyl)methyl)-4′-fluoro-5-((2-imino-3-methyl-2,3-dihydro-1H-imidazol-1-yl)methyl)-2′-(trifluoromethyl)-[1,1′-biphenyl]3-carboxamide] | < 100 nM |  |  |
|  | Cc1cc([C@@H](NC(=O)c2cc(Cn3ccccc3=N)cc(-c3cccnc3C(F)(F)F)c2)C2CC2)ccc1F [Example 342, (S)—N-(Cyclopropyl(4-fluoro-3-methylphenyl)methyl)-3-((2-iminopyridin-1(2H)-yl)methyl)-5-(2-(trifluoromethyl)pyridin-3-yl)benzamide] | < 100 nM | < 0.1 nM |  |

— US10844044B2 (Vanderbilt University, priority 2018, dated 2020)
